The text below walks through data of patent US8263044B2, “Stilbene like compounds as novel HDAC inhibitors” (Orchid Research Laboratories Limited, priority 2005, dated 2012).

Test [1] deals with MDAMB231/U251. Kind of test: cells. The following applies: 48 h, read-out: MDAMB231/U251 GI50.
For the next test, the system named is NCIH 460 cells. In words: cells. The following applies: Homo sapiens, NCI-H460, 48 h; for GI50: read-out: NCIH460 GI50; for CC50: read-out: NCIH460 LC50.
Another test deals with HCT 116 cells. In words: cells. Particulars: Homo sapiens, HCT-116, 48 h; for GI50: read-out: HCT116 GI50; for CC50: read-out: HCT116 LC50.
Test [2] has as its system MDAMB231/U251. In words: cells. Particulars: 48 h, read-out: MDAMB231/U251 LC50.
Test [3] relates to HDAC activity (Mouse Liver Extract). In words: Histone Deacetylase (HDAC) Inhibition Assay using Boc-Lys (Ac)-AMC Substrate. The class given is biochemical. Particulars: mouse liver enzyme; for HDAC Inhibition 1 μM: inhibitor at 1 μM; for HDAC Inhibition 1 μM / HDAC Inhibition 10 μM: in % (unit assumed); for HDAC Inhibition 10 μM: inhibitor at 10 μM. In a few lines: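 Mouse liver extract (diluted 1:6) was preincubated with inhibitor for 5 min at 30° C, then reacted with Boc-Lys(Ac)-AMC for 30 min at 30° C. Trypsin stop solution was added for 20–30 min to release AMC, read by fluorescence at ex 360/365 nm and em 440/460 nm with buffer-plus-substrate blank subtracted.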

Test [4] relates to NCIH460, HCT116, MDAMB231/U251. In words: Anti-cancer screen, mean GI50 over the cell lines. The class given is cell-based. The following applies: mean over the three cell lines; no unit in table.

For the molecule `Cc1ncsc1/C=C(\C(=O)NCCCCCC(=O)NO)c1ccc(C(F)(F)F)cc1` [Example 26, (2Z)-3-(4-Methylthiazol-5-yl)-2-(4-trifluoromethylphenyl)-N-[6-(hydroxyamino)-6-oxohexyl]acrylamide], the GI50 in the test on MDAMB231/U251 [1] stood at 10 µM; in the test on NCIH 460 cells, 34 µM; in the test on HCT 116 cells it was 9 µM; in test [4], 17.7 µM. Moreover, the CC50 is over 100 µM in the test on NCIH 460 cells, 100 µM in the test with HCT 116 cells and 85 µM in the test with MDAMB231/U251 [2]. In test [3], the “HDAC Inhibition 1 μM” value was 39.38. The “HDAC Inhibition 10 μM” value in test [3] stood at 76.69.

Broadly, the IC50 is the point on the concentration scale where inhibition reaches its midpoint. A lower IC50 goes with higher potency. Take `COc1ccc(/C(=C/c2cccc(Cl)c2)C(=O)NCCCCCC(=O)NO)cc1` [Example 28, (2Z)-3-(3-Chlorophenyl)-2-(4-methoxyphenyl)-N-[6-(hydroxyamino)-6-oxohexyl]acrylamide]: the GI50 was found to be 4 µM with MDAMB231/U251 [1], 9 µM with NCIH 460 cells, 5 µM in the test with HCT 116 cells and 6 µM in test [4]. The figures for the CC50 in the test on NCIH 460 cells, with HCT 116 cells and in the test on MDAMB231/U251 [2] were 82 µM, 45 µM and 100 µM, respectively. Besides, the “HDAC Inhibition 1 μM” value in test [3] came to 70.82. The “HDAC Inhibition 10 μM” value in test [3] worked out at 90.20. The same molecule returned a half-maximal inhibitory concentration (IC50) in test [3] of 0.44 µM.

As for `O=C(CCCCCNC(=O)/C(=C\c1ccccc1[N+](=O)[O-])c1ccc(Cl)cc1)NO` [Example 30, (2Z)-3-(2-Nitrophenyl)-2-(4-chlorophenyl)-N-[6-(hydroxyamino)-6-oxohexyl]acrylamide], the GI50 was 3 µM in the test with MDAMB231/U251 [1], 30 µM with NCIH 460 cells, 6 µM in the test with HCT 116 cells and 13 µM in test [4]. The CC50 with NCIH 460 cells, in the test on HCT 116 cells and with MDAMB231/U251 [2] was over 100 µM throughout. The “HDAC Inhibition 1 μM” value in test [3] came out at 52.95. Moreover, the “HDAC Inhibition 10 μM” value in test [3] was 84.69.

Regarding `O=C(CCCCCNC(=O)/C(=C\c1ccc(F)cc1Cl)c1ccccc1)NO` [Example 31, (2Z)-3-(2-Chloro-4-fluorophenyl)-2-(phenyl)-N-[6-(hydroxyamino)-6-oxohexyl]acrylamide], the GI50 came to 6 µM with MDAMB231/U251 [1], 9.7 µM in the test with NCIH 460 cells, 5 µM with HCT 116 cells and 6.9 µM in test [4]. Also, the CC50 in the test on NCIH 460 cells is over 100 µM; with HCT 116 cells it was 97 µM; in the test with MDAMB231/U251 [2], over 100 µM. In addition, the “HDAC Inhibition 1 μM” value in test [3] is recorded as 72.20. In test [3], the “HDAC Inhibition 10 μM” value is listed as 91.49.

Turning to `O=C(CCCCCNC(=O)/C(=C\c1ccc(Cl)o1)c1ccc(F)cc1)NO` [Example 37, (2Z)-3-(5-Chloro-2-furyl)-2-(4-fluorophenyl)-N-[6-(hydroxyamino)-6-oxohexyl]acrylamide], the GI50 in the test with MDAMB231/U251 [1] turned out to be 5 µM; with NCIH 460 cells, 26 µM; in the test on HCT 116 cells, 6 µM; in test [4] it was 12.3 µM. Besides, the figures for the CC50 with NCIH 460 cells, with HCT 116 cells and with MDAMB231/U251 [2] were 90 µM, 90 µM and 80 µM, respectively. The “HDAC Inhibition 1 μM” value in test [3] came out at 56.87. The “HDAC Inhibition 10 μM” value in test [3] was determined as 83.89.

Consider `CSc1ccc(/C=C(\C(=O)NCCCCCC(=O)NO)c2ccc(C(F)(F)F)cc2)cc1` [Example 38, (2Z)-3-(4-Thiomethylphenyl)-2-(4-trifluoromethylphenyl)-N-[6-(hydroxyamino)-6-oxohexyl]acrylamide], for which the GI50 was determined as 0.07 µM in the test with MDAMB231/U251 [1], 6 µM with NCIH 460 cells, 5.5 µM with HCT 116 cells and 3.9 µM in test [4]. Also, the CC50 in the test with NCIH 460 cells amounted to 64 µM; in the test with HCT 116 cells, 65 µM; in the test with MDAMB231/U251 [2], 60 µM. The “HDAC Inhibition 1 μM” value in test [3] is recorded as 59.26. For the same molecule, the “HDAC Inhibition 10 μM” value in test [3] is recorded as 97.74.
